Experimental findings from US11440923B2, “Substituted macrocyclic indole derivatives” (Bayer Aktiengesellschaft, priority 2017, dated 2022) are described below.

What is called EC50 is the concentration giving half of the maximal effect. Broadly, the IC50 is the concentration that gives 50% inhibition.

Common to all, as to format: cell-based
The test system of data set [1] is SUDHL5 cells. Description: Induction of caspase-3/7 activity in SUDHL5 cells (Assay 4). Here is the method:
(§1) Induction of Caspase-3/7 Activity Upon Treatment of Cells with Selected Compounds
(§2) The BH3-domain of MCL-1 sequesters pro-apoptotic proteins, thereby inhibiting apoptosis. In contrast, MCL-1 inhibitors are expected to antagonize this effect leading to an increase in apoptosis, which can be determined by measuring the activity of caspase-3/7.
(§3) The activity of caspase-3/7 was determined in DLBCL (Diffuse large B-cell lymphoma) cell lines (SUDHL5 and SUDHL10) upon treatment with different compounds, using the Caspase-Glo® 3/7 reagent from Promega (G8092).
(§4) As a control, medium without cells was also added to the plate. Cells were incubated in a humidified incubator at 37° C. overnight.
(§5) Rim wells were excluded. The cells were incubated for 3 h hours in a humidified incubator at 37° C. After this incubation, 30 μL of Caspase-Glo® 3/7 reagent (Promega G8092) was added to each well using the Multidrop Combi Reagent Dispenser, followed by 1 h incubation at 37° C. Finally, luminescence was read at 0.1 ms, with a gain of 3000 using the PHERAstar FS microplate reader (BMG Labtech).
(§6) For the evaluation of the results, the background measured with “medium-only” was subtracted from all other values. Then, the values were normalized to DMSO-only treated cells (every value was divided by the mean of the DMSO control).

The next data set relates to HMC-1-8 cells. Nature of the data set: Antiproliferation assay HMC-1-8 (Assay 7). Here is the method: (§7) Assessment of the Anti-Proliferative Effect of Compounds in Different Cell Lines
(§8) The impact of compounds on the proliferation of different cell lines was assessed using the CellTiter-Glo® Luminescent Cell Viability reagent from Promega (G7573).
(§9) In parallel, cells were plated in a reference (day 0) plate for time zero determination. Cells were incubated in a humidified incubator at 37° C. overnight.
(§10) Rim wells were excluded. The cells were incubated for 72 h hours in a humidified incubator at 37° C. The day 0 plate was measured by adding 30 μL/well of CTG solution (CellTiter-Glo® Luminescent Cell Viability reagent, Promega G7573) to time zero wells in the reference plate followed by a 10 minutes incubation and luminescence reading at 0.1 ms. using the PHERAstar FS microplate reader (BMG Labtech).
(§11) After 72 h incubation, the treated plates were measured in the same way as the day 0 plate mentioned above. The Bella DRC Master Sheet was used to calculate IC50s, with CI=day 0 values and C0=DMSO control values.

In data set [2] the test system is SUDHL10 cells. Description: Induction of caspase-3/7 activity in SUDHL10 cells (Assay 4). How it is done:
as §1, §2, §3, §4, §5, §6

The test system of a further data set is AMO-1 cells. Description: Antiproliferation assay AMO-1 (Assay 7). Here is the method:
as §7, §8, §9, §10, §11

Data set [3] concerns SUDHL5 cells. Description: Induction of cytotoxicity in SUDHL5 cells (Assay 6). As to conditions: 5 h, CellTiter-Glo, read-out: Cytotox SUDHL5 IC50 (median). Here is the method: (§12) Assay 6 Induction of Cytotoxicity Upon Treatment of Cells with Selected Compounds
(§13) In principle, compounds that induce apoptosis will concomitantly induce cell cytotoxicity. Therefore, cytotoxicity assays were run in parallel in SUDHL5 and SUDHL10 cells.
(§14) As a control, medium without cells was also added to the plate. Cells were incubated in a humidified incubator at 37° C. overnight. […] Rim wells were excluded. The cells were incubated for 5 h hours in a humidified incubator at 37° C. After this incubation, 30 μL of CellTiter-Glo® Luminescent Cell Viability reagent (Promega, G7573) was added to each well using the Multidrop Combi Reagent Dispenser, followed by 15 min incubation on a shaker at room temperature. Finally, luminescence was read at 0.1 ms, with a gain of 3000 using the PHERAstar FS microplate reader (BMG Labtech).
A general note: In ATP-based viability assays light output follows the ATP content of the culture.

The test system of data set [4] is SUDHL10 cells. Nature of the data set: Induction of cytotoxicity in SUDHL10 cells (Assay 6). As to conditions: 5 h, CellTiter-Glo, read-out: Cytotox SUDHL10 IC50 (median). How it is done: as §12, §13, §14
Data set [5] relates to SUDHL5 cells. Nature of the data set: Antiproliferation assay SUDHL5 (Assay 7). Here is the method: as §7, §8, §9, §10, §11
Setting [6] is: caspase-3/7 induction, 3 h; read-out: Caspase SUDHL5 EC50 (median).
Where [7] appears, read: 72 h, CellTiter-Glo; read-out: Antiproli HMC-1-8 IC50 median.
Setting [8] is: caspase-3/7 induction, 3 h; read-out: Caspase SUDHL10 EC50 (median).
The mark [9] stands for this setting: 72 h, CellTiter-Glo; read-out: Antiproli AMO-1 IC50 median.
[10] abbreviates: 72 h, CellTiter-Glo; read-out: Antiproli SUDHL5 IC50 (median).

Structures can show the parent of a compound that is named as a salt. Where two headings read alike, the source gives them in different places. A value given as a limit tells only on which side of the number the result lay.

In the case of `CCc1c2c(nn1C)C1CCCCN1CCCCn1c(C(=O)O)c(CCCOc3cccc4ccccc34)c3ccc(Cl)c-2c31` (racemic) [Example 103, (rac)-18-chloro-1-ethyl-2-methyl-15-[3-(1-naphthyloxy)propyl]-2,3b,4,5,6,7,9,10,11,12-decahydropyrazolo[3′,4′:8,9]pyrido[1′,2′:6,7][1,6]diazacycloundecino[10,11,1-hi]indole-14-carboxylic Acid], the EC50 in the data set on SUDHL5 cells [1] (Homo sapiens, SU-DHL-5, 3 h, caspase-3/7 induction, 3 h; read-out: Caspase SUDHL5 EC50 (median)) came to 1.4 µM; with SUDHL10 cells [2] (Homo sapiens, SU-DHL10, 3 h, caspase-3/7 induction, 3 h; read-out: Caspase SUDHL10 EC50 (median)) it was 2.2 µM. Besides, the IC50 was determined as 19.8 µM in the data set with HMC-1-8 cells (72 h, CellTiter-Glo, read-out: Antiproli HMC-1-8 IC50 median); 1.95 µM in the data set on AMO-1 cells (Homo sapiens, AMO1, 72 h, 72 h, CellTiter-Glo; read-out: Antiproli AMO-1 IC50 median); 1.1 µM with SUDHL5 cells [3] (Homo sapiens, SU-DHL-5, 5 h); 1.7 µM in the data set with SUDHL10 cells [4] (Homo sapiens, SU-DHL10, 5 h); 2 µM in the data set on SUDHL5 cells [5] (Homo sapiens, SU-DHL-5, 72 h, 72 h, CellTiter-Glo; read-out: Antiproli SUDHL5 IC50 (median)).

With `CCc1c2c(nn1C)C(CCN(C)C)OCCCCn1c(C(=O)O)c(CCCOc3cccc4cc(F)ccc34)c3ccc(Cl)c-2c31` (single isomer, unassigned) [Example 82, 4-chloro-15-[2-(dimethylamino)ethyl]-3-ethyl-7-{3-[(6-fluoronaphthalen-1-yl)oxy]propyl}-2-methyl-2,10,11,12,13,15-hexahydropyrazolo[4′,3′:9,10][1,6]oxazacycloundecino[8,7,6-hi]indole-8-carboxylic Acid], the figures for the EC50 in the data set on SUDHL5 cells [1] (setting [6]) and with SUDHL10 cells [2] (setting [8]) were 2.7 µM and 4.5 µM, respectively. Further, the IC50 in the data set with HMC-1-8 cells (setting [7]) was > 33 µM; in the data set with AMO-1 cells (setting [9]) it was 7.56 µM; in the data set with SUDHL5 cells [3], 2.6 µM; in the data set with SUDHL10 cells [4], 3.1 µM; with SUDHL5 cells [5] (setting [10]) it was 4.2 µM.

Take `CCc1c2c(nn1C)C(CCN(C)C)OCCCCn1c(C(=O)O)c(CCCOc3cccc4cc(F)ccc34)c3ccc(Cl)c-2c31` (single isomer, unassigned) [Example 83, 4-chloro-15-[2-(dimethylamino)ethyl]-3-ethyl-7-{3-[(6-fluoronaphthalen-1-yl)oxy]propyl}-2-methyl-2,10,11,12,13,15-hexahydropyrazolo[4′,3′:9,10][1,6]oxazacycloundecino[8,7,6-hi]indole-8-carboxylic Acid]: the concentration giving a half-maximal response (EC50) in the data set with SUDHL5 cells [1] (setting [6]) was 0.23 µM; in the data set with SUDHL10 cells [2] (setting [8]) it was 0.34 µM. The IC50 in the data set on HMC-1-8 cells (setting [7]) came out at 8.74 µM; in the data set on AMO-1 cells (setting [9]), 0.65 µM; with SUDHL5 cells [3] it was 0.27 µM; in the data set with SUDHL10 cells [4], 0.33 µM; in the data set with SUDHL5 cells [5] (setting [10]), 0.42 µM.

Turning to `CCc1c2c(nn1C)C(CCN(C)C)OCCCCn1c(C(=O)O)c(CCCOc3cccc4cc(F)ccc34)c3ccc(Cl)c-2c31` (single isomer, unassigned) [Example 84, 4-chloro-15-[2-(dimethylamino)ethyl]-3-ethyl-7-{3-[(6-fluoronaphthalen-1-yl)oxy]propyl}-2-methyl-2,10,11,12,13,15-hexahydropyrazolo[4′,3′:9,10][1,6]oxazacycloundecino[8,7,6-hi]indole-8-carboxylic Acid], the values for the EC50 with SUDHL5 cells [1] (setting [6]) and with SUDHL10 cells [2] (setting [8]) were 1.8 µM and 5.4 µM, respectively. The IC50 in the data set with HMC-1-8 cells (setting [7]) was > 33 µM; in the data set with AMO-1 cells (setting [9]) it was 9.56 µM; in the data set on SUDHL5 cells [3], 1.7 µM; with SUDHL10 cells [4] it was 4.4 µM; in the data set on SUDHL5 cells [5] (setting [10]) it was 3.1 µM.

Turning to `CCc1c2c(nn1C)C(CCN(C)C)OCCCCn1c(C(=O)O)c(CCCOc3cccc4cc(F)ccc34)c3ccc(Cl)c-2c31` (single isomer, unassigned) [Example 85, 4-chloro-15-[2-(dimethylamino)ethyl]-3-ethyl-7-{3-[(6-fluoronaphthalen-1-yl)oxy]propyl}-2-methyl-2,10,11,12,13,15-hexahydropyrazolo[4′,3′:9,10][1,6]oxazacycloundecino[8,7,6-hi]indole-8-carboxylic Acid], the EC50 with SUDHL5 cells [1] (setting [6]) was found to be 0.95 µM; with SUDHL10 cells [2] (setting [8]) it was 1.6 µM. The IC50 is > 33 µM in the data set on HMC-1-8 cells (setting [7]); 5.17 µM in the data set on AMO-1 cells (setting [9]); 0.87 µM in the data set on SUDHL5 cells [3]; 2 µM with SUDHL10 cells [4]; 0.91 µM with SUDHL5 cells [5] (setting [10]).

For `CCc1c2c(nn1C)C(CCN1CC(F)(F)C1)OCCCCn1c(C(=O)O)c(CCCOc3cccc4cc(F)ccc34)c3ccc(Cl)c-2c31` (single isomer, unassigned; (-)) [Example 79, (−)-4-chloro-15-[2-(3,3-difluoroazetidin-1-yl)ethyl]-3-ethyl-7-{3-[(6-fluoronaphthalen-1-yl)oxy]propyl}-2-methyl-2,10,11,12,13,15-hexahydropyrazolo[4′,3′:9,10][1,6]oxazacycloundecino[8,7,6-hi]indole-8-carboxylic Acid—N-ethylethanamine Salt], the EC50 with SUDHL5 cells [1] (setting [6]) was 3.7 µM; with SUDHL10 cells [2] (setting [8]) it was 5.4 µM. For the same molecule, the IC50 is 23.5 µM with HMC-1-8 cells (setting [7]); 3.7 µM in the data set with AMO-1 cells (setting [9]); 4.1 µM in the data set on SUDHL5 cells [3]; 3.8 µM with SUDHL10 cells [4]; 2.2 µM with SUDHL5 cells [5] (setting [10]).

For the molecule `CCc1c2c(nn1C)C(CCC1CCOCC1)OCCCCn1c(C(=O)O)c(CCCOc3cccc4cc(F)ccc34)c3ccc(Cl)c-2c31` (single isomer, unassigned; enantiomer 2) [Example 64, (−)-4-chloro-3-ethyl-7-{3-[(6-fluoronaphthalen-1-yl)oxy]propyl}-2-methyl-15-[2-(oxan-4-yl)ethyl]-2,10,11,12,13,15-hexahydropyrazolo[4′,3′:9,10][1,6]oxazacycloundecino[8,7,6-hi]indole-8-carboxylic Acid—N-ethylethanamine Salt (Enantiomer 2)], the EC50 was found to be 0.74 µM with SUDHL5 cells [1] (read-out: Caspase SUDHL5 EC50 (median); caspase-3/7 induction, 3 h) and 1.3 µM with SUDHL10 cells [2] (read-out: Caspase SUDHL10 EC50 (median); caspase-3/7 induction, 3 h). Moreover, the IC50 in the data set on HMC-1-8 cells (read-out: Antiproli HMC-1-8 IC50 median; 72 h, CellTiter-Glo) was found to be 7.51 µM; with AMO-1 cells (read-out: Antiproli AMO-1 IC50 median; 72 h, CellTiter-Glo), 1.03 µM; with SUDHL5 cells [3], 0.81 µM; with SUDHL10 cells [4] it was 2.6 µM; with SUDHL5 cells [5] (read-out: Antiproli SUDHL5 IC50 (median); 72 h, CellTiter-Glo) it was 1.6 µM.

Regarding `CCc1c2c(nn1C)C(CCC(C)(C)O)OCCCCn1c(C(=O)O)c(CCCOc3cccc4cc(F)ccc34)c3ccc(Cl)c-2c31` (single isomer, unassigned; enantiomer 2) [Example 76, (−)-4-chloro-3-ethyl-7-{3-[(6-fluoronaphthalen-1-yl)oxy]propyl}-15-(3-hydroxy-3-methylbutyl)-2-methyl-2,10,11,12,13,15-hexahydropyrazolo[4′,3′:9,10][1,6]oxazacycloundecino[8,7,6-hi]indole-8-carboxylic Acid—N-ethylethanamine Salt (Enantiomer 2)], the EC50 in the data set on SUDHL5 cells [1] (setting [6]) came to 3.3 µM; in the data set on SUDHL10 cells [2] (setting [8]), 5.8 µM. Further, the IC50 with HMC-1-8 cells (setting [7]) amounted to 13 µM; with AMO-1 cells (setting [9]), 3.87 µM; in the data set on SUDHL5 cells [3], 3.6 µM; with SUDHL10 cells [4] it was 5.2 µM; with SUDHL5 cells [5] (setting [10]) it was 4.6 µM.
